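96-well plates; 48 h exposure; 5 concentrations. Endpoints by linear interpolation between flanking doses. Not reached: highest tested concentration assigned. GI50 is the concentration that inhibits growth by half. Definition used: TGI = concentration required for complete inhibition of growth.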
What was measured:
Assay in all cases: inhibition of tumour cell growth, NCI panel, 48 h; in the data active = GI50 below about 0.43 µM; inactive = the rest
T-47D breast = tested on: T-47D breast
HCC-2998 colon = tested on: HCC-2998 colon
PC-3 prostate = tested on: PC-3 prostate
SNB-75 CNS = tested on: SNB-75 CNS
NCI-H460 lung = tested on: NCI-H460 lung
COLO 205 colon = tested on: COLO 205 colon
A498 renal = tested on: A498 renal
SNB-19 CNS = tested on: SNB-19 CNS
IGROV1 ovarian = tested on: IGROV1 ovarian
HS 578T breast = tested on: HS 578T breast
KM12 colon = tested on: KM12 colon
OVCAR-5 ovarian = tested on: OVCAR-5 ovarian
RXF 393 renal = tested on: RXF 393 renal
OVCAR-3 ovarian = tested on: OVCAR-3 ovarian
SF-295 CNS = tested on: SF-295 CNS
HOP-92 NSCLC = tested on: HOP-92 NSCLC
M14 melanoma = tested on: M14 melanoma
HT29 colon = tested on: HT29 colon
CAKI-1 renal = tested on: CAKI-1 renal
SF-539 CNS = tested on: SF-539 CNS
LOX IMVI melanoma = tested on: LOX IMVI melanoma
HCT-15 colon = tested on: HCT-15 colon
NCI-H226 lung = tested on: NCI-H226 lung
NCI-H23 lung = tested on: NCI-H23 lung
NCI/ADR-RES ovarian = tested on: NCI/ADR-RES ovarian
SN12C renal = tested on: SN12C renal
SF-268 CNS = tested on: SF-268 CNS
SK-MEL-2 melanoma = tested on: SK-MEL-2 melanoma
BT-549 breast = tested on: BT-549 breast
MDA-MB-468 breast = tested on: MDA-MB-468 breast
MCF7 breast = tested on: MCF7 breast
786-0 renal = tested on: 786-0 renal
HL-60(TB) leukemia = tested on: HL-60(TB) leukemia
MALME-3M melanoma = tested on: MALME-3M melanoma
DU-145 prostate = tested on: DU-145 prostate
UACC-62 melanoma = tested on: UACC-62 melanoma
MDA-MB-435 = tested on: MDA-MB-435
UACC-257 melanoma = tested on: UACC-257 melanoma
U251 CNS = tested on: U251 CNS
CCRF-CEM leukemia = tested on: CCRF-CEM leukemia
RPMI-8226 leukemia = tested on: RPMI-8226 leukemia
NCI-H522 lung = tested on: NCI-H522 lung
HOP-62 NSCLC = tested on: HOP-62 NSCLC
MDA-MB-231 breast = tested on: MDA-MB-231 breast
A549 NSCLC = tested on: A549 NSCLC
OVCAR-4 ovarian = tested on: OVCAR-4 ovarian
K-562 leukemia = tested on: K-562 leukemia
MOLT-4 leukemia = tested on: MOLT-4 leukemia
EKVX NSCLC = tested on: EKVX NSCLC
SK-MEL-5 melanoma = tested on: SK-MEL-5 melanoma
SK-OV-3 ovarian = tested on: SK-OV-3 ovarian
SW-620 colon = tested on: SW-620 colon
OVCAR-8 ovarian = tested on: OVCAR-8 ovarian
SK-MEL-28 melanoma = tested on: SK-MEL-28 melanoma

CCCSc1nc(Nc2ccc(S(N)(=O)=O)cc2)c(C#N)c(-c2ccc(Cl)cc2)n1
5.67 µM: TGI (HOP-62 NSCLC)
7.81 µM: TGI (U251 CNS)
25.3 µM: TGI (M14 melanoma)
8.66 µM: TGI (NCI-H226 lung)
90.5 µM: TGI (NCI/ADR-RES ovarian)
29.6 µM: TGI (SW-620 colon)
5.65 µM: TGI (OVCAR-4 ovarian)
4.31 µM: TGI (A498 renal)
19.6 µM: TGI (OVCAR-3 ovarian)
10 µM: TGI (SF-539 CNS)
4.63 µM: TGI (RXF 393 renal)
8.09 µM: TGI (HS 578T breast)
43 µM: TGI (NCI-H23 lung)
3.55 µM: TGI (LOX IMVI melanoma)
97.1 µM: TGI (DU-145 prostate)
4.94 µM: TGI (SF-295 CNS)
20.9 µM: TGI (SNB-19 CNS)
22.4 µM: TGI (NCI-H460 lung)
9.63 µM: TGI (SNB-75 CNS)
16.1 µM: TGI (OVCAR-8 ovarian)
37.1 µM: TGI (MDA-MB-468 breast)
inactive: GI50 (T-47D breast) > 100 µM | GI50 (HCC-2998 colon) 4.2 µM | GI50 (PC-3 prostate) 13.4 µM | GI50 (SNB-75 CNS) 2.03 µM | GI50 (NCI-H460 lung) 3.85 µM | GI50 (COLO 205 colon) 9.54 µM | GI50 (A498 renal) 1.78 µM | GI50 (SNB-19 CNS) 4.04 µM | GI50 (IGROV1 ovarian) 6.03 µM | GI50 (HS 578T breast) 2.59 µM | GI50 (KM12 colon) 4.17 µM | GI50 (OVCAR-5 ovarian) 8.78 µM | GI50 (RXF 393 renal) 2 µM | GI50 (OVCAR-3 ovarian) 3.63 µM | GI50 (SF-295 CNS) 2.1 µM | GI50 (HOP-92 NSCLC) 1.39 µM | GI50 (M14 melanoma) 3.48 µM | GI50 (HT29 colon) 6.41 µM | GI50 (CAKI-1 renal) 1.94 µM | GI50 (SF-539 CNS) 2.57 µM | GI50 (LOX IMVI melanoma) 1.82 µM | GI50 (HCT-15 colon) 2.92 µM | GI50 (NCI-H226 lung) 2.6 µM | GI50 (NCI-H23 lung) 9.53 µM | GI50 (NCI/ADR-RES ovarian) 4.89 µM | GI50 (SN12C renal) 2.39 µM | GI50 (SF-268 CNS) 9 µM | GI50 (SK-MEL-2 melanoma) 13.8 µM | GI50 (BT-549 breast) 30.8 µM | GI50 (MDA-MB-468 breast) 4.49 µM | GI50 (MCF7 breast) 24.3 µM | GI50 (786-0 renal) 1.98 µM | GI50 (HL-60(TB) leukemia) > 100 µM | GI50 (MALME-3M melanoma) 3.07 µM | GI50 (DU-145 prostate) 12.2 µM | GI50 (UACC-62 melanoma) 5.11 µM | GI50 (MDA-MB-435) 7.9 µM | GI50 (UACC-257 melanoma) 28.5 µM | GI50 (U251 CNS) 2.42 µM | GI50 (CCRF-CEM leukemia) > 100 µM | GI50 (RPMI-8226 leukemia) 3.14 µM | GI50 (NCI-H522 lung) 16.4 µM | GI50 (HOP-62 NSCLC) 2.35 µM | GI50 (MDA-MB-231 breast) 2.83 µM | GI50 (A549 NSCLC) 3.62 µM | GI50 (OVCAR-4 ovarian) 2.23 µM | GI50 (K-562 leukemia) 2.85 µM | GI50 (MOLT-4 leukemia) 8.11 µM | GI50 (EKVX NSCLC) 9.38 µM | GI50 (SK-MEL-5 melanoma) 6.96 µM | GI50 (SK-OV-3 ovarian) 4.11 µM | GI50 (SW-620 colon) 4.67 µM | GI50 (OVCAR-8 ovarian) 3.42 µM | GI50 (SK-MEL-28 melanoma) 36.1 µM
> 100 µM: TGI (T-47D breast) | TGI (HCC-2998 colon) | TGI (PC-3 prostate) | TGI (COLO 205 colon) | TGI (IGROV1 ovarian) | TGI (KM12 colon) | TGI (OVCAR-5 ovarian) | TGI (HT29 colon) | TGI (HCT-15 colon) | TGI (SF-268 CNS) | TGI (SK-MEL-2 melanoma) | TGI (BT-549 breast) | TGI (MCF7 breast) | TGI (HL-60(TB) leukemia) | TGI (UACC-62 melanoma) | TGI (MDA-MB-435) | TGI (UACC-257 melanoma) | TGI (CCRF-CEM leukemia) | TGI (RPMI-8226 leukemia) | TGI (NCI-H522 lung) | TGI (A549 NSCLC) | TGI (K-562 leukemia) | TGI (MOLT-4 leukemia) | TGI (EKVX NSCLC) | TGI (SK-MEL-5 melanoma) | TGI (SK-MEL-28 melanoma)
8.9 µM: TGI (MDA-MB-231 breast)
17.9 µM: TGI (MALME-3M melanoma)
4.8 µM: TGI (CAKI-1 renal)
7.5 µM: TGI (SN12C renal)
3.73 µM: TGI (HOP-92 NSCLC)
4.06 µM: TGI (786-0 renal)
67.6 µM: TGI (SK-OV-3 ovarian)

From PubChem BioAssay (NCI)
